Legend:
[1] = tested on: middle cerebral artery ischemia model of rat; assay: Infarction inhibiting action in middle cerebral artery ischemia (MCAo-recirculation) model of rat; format: in vivo; settings: ip, 24 h, 3 mg/kg i.p. 10 minutes before occlusion and 1 hour after recirculation, infarction volume one day after, vs control group, read-out: Rate of inhibition of infarction
Description: It is also known that, in this way, in the acute stage of cerebral infarction, the lesion proceeds to the peripheral tissue from the core of infarction, and death of the nerve cells is extended with the passage of several days. This possible not only extends and creates grave aftereffects, and causes loss of motor and mental function, but also finally critically influences on the life. As an in vivo experimental model of cerebral infarction which is capable of precisely evaluating the clinical effect of a medicine in conformity with clinical conditions of the disease of a patient of cerebral infarction, the middle cerebral artery occlusion (MCAo)-recirculation model comprising an embolus with a yarn using Wister rates may be used [Document: Japan Journal of Stroke, vol. 8, 1 (1986)]. […] This action was evaluated by applying the MCAo model by the method which will be described below.
In rats of 10 weeks old, after etherization, a median incision of the cervical region was made up to the right carotid artery bifurcation under 1.0% halothane anesthetization with care to preserve the vagus nerves. The common carotid artery and the external carotid artery were separated from the periphery connective tissue with the right carotid artery bifurcation as the center, and each of the arteries was ligated by a 6-0 silk yarn (Eto yarn). Further, a yarn was wound on the internal carotid artery origin in preparation for ligation and fixing after insertion of the embolus. Next, the common carotid artery was incised, and the embolus was inserted from the common carotid artery to the internal carotid artery by about 15 to 16 mm, and ligated and fixed to the internal carotid artery by the silk yarn at the end thereof near the nylon yarn. In this operation, the end of the embolus was inserted into the anterior cerebral artery by about 1 to 2 mm beyond the middle cerebral artery bifurcation, and the inlet of the middle cerebral artery was occluded by the body (resin part) of the embolus for 1 hours. In recirculation, the embolus with a yarn was removed to recirculate the blood flow to the middle cerebral artery. 3 mg/kg of each of test compounds was intraperitoneally administered 10 minutes before occlusion and 1 hour after recirculation of the blood flow. One day after occlusion and recirculation, the whole body was perfused with physiologic saline through the heart, and the brain was extracted. The extracted brain was cooled with ice and water for 5 minutes, and cut at intervals of 2.0 mm to form 7 sections of the cerebral coronal surface. Each of the sections was stained with TTC (Triphenyltetrazolium Chloride), and fixed by a 5% neutral buffer formalin solution. In each of the sections, the infarction area in the right cerebral hemisphere was measured by an image analyzer (Olympus), and the infarction was evaluated by volume (mm^3). The infarction volume was compared with the infarction volume of a control group to calculate the rate of inhibition of infarction.

cultured nerve cells = assay: Action of protecting cultured nerve cells from glutamic acid toxicity (LDH leakage); format: cell-based, Wistar rat; settings: rat fetal cerebral cortex cells, 10 mM glutamic acid, 24 hours, read-out: ED50 (the source's name)

Oc1ccc2c3c1O[C@H]1c4c(c5ccc6ccccc6c5n4Cc4ccc(F)cc4)C[C@@]4(O)[C@@H](C2)N(CC2CC2)CC[C@]314 [Compound 70]
inhibition in vivo at 3 mg/kg [1]: 34% | EC50 (cultured nerve cells): 15 nM
